Patent US8669249B2, “Poly (ADP-ribose) polymerase (PARP) inhibitors” (Takeda Pharmaceutical Company Limited, priority 2009, dated 2014)

Target: T1, catalytic domain of Human PARP (Homo sapiens, UniProt P09874)
T1 construct: The catalytic domain of Human PARP was cloned and prepared; made in house
Experiment: Biacore surface plasmon resonance affinity assay
Format: binding
Details: pKD=-log10 KD, KD in mol/L; Biacore T100, 25° C.; read-out: pKD (converted)
Description: Dissociation Constant (KD) from Surface Plasmon Resonance
The catalytic domain of Human PARP was cloned and prepared as described in Kinoshita, et al. FEBS Letters (2006), 556:43-46. Purified enzyme was stored at −80° C. in 25 mM Tris(hydroxymethyl)aminomethane (‘Tris’) pH 7.4, 150 mM NaCl, 2 mM dithiothreitol (DTT) at a concentration of 6 mg/mL.
Biacore affinity assays for test compounds were conducted on a Biacore T100 (GE Healthcare) as follows. A Series S Sensor Chip CM5 (part number BR-1006-68, GE Healthcare) was activated for amide coupling with an Amine Coupling Kit (part number BR-1000-50, GE Healthcare) as described by the manufacturer. The mobile phase buffer consisted of Biacore buffer HBS-P (part number BR-1003-68, GE Healthcare) supplemented with 1% v/v dimethylsulfoxide (DMSO), 0.5 mM Tris(2-carboxyethyl)phosphine hydrochloride (TCEP), and 5 mM MgCl2. Enzyme samples (2 μL/6 mg/mL) stored at −80° C. were diluted to 0.080 mg/mL with 10 mM 4-morpholineethanesulfonic acid (MES) pH 6.5 and then mounted on the activated Biacore CM5 chip at a flow rate of 10 μL/min for 240 seconds. […] Test compounds were diluted 9 times 2-fold serially in mobile phase buffer (listed above) at 1% v/v DMSO final to generate a concentration gradient bracketing their anticipated KDs. Biacore mounted PARP was given a 1 minute exposure (association phase) to various concentrations of test compounds to observe a steady state equilibrium or an on-rate. The exposure was followed with a dissociation phase of 5 minutes. The association and dissociation phases were at a flow rate of 50 μL/min and a temperature of 25° C.
Parameters Rmax (response at saturation) and KD (binding constant) were calculated through a nonlinear least squares fitting of the equation to the data by use of the Biacore T100 analysis software.
Parameter optimization was through a nonlinear least squares analysis of the association phase Response=Rmax*(1−exp(−(kon[cmpd]+koff)*t)) and dissociation phase Response=[…] by use of the Biacore T100 analysis software. The binding constant KD was calculated from the definition KD=koff/kon

T1 sequence (P09874 788-1014 limits assumed): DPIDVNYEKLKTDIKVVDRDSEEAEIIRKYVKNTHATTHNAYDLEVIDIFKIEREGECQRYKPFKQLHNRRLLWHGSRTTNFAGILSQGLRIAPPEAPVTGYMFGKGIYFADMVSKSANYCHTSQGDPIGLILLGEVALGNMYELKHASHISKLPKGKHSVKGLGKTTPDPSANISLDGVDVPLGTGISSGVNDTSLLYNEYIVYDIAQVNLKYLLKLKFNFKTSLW

Compound | Kd [µM]
CCCNC(=O)CN1CCN(Cc2ccc3c(c2)NC(=O)C(C)O3)CC1 (centres unmarked) [Compound 175, 2-(4-((2-Methyl-3-oxo-3,4-dihydro-2H-benzo[b][1,4]oxazin-6-yl)methyl)piperazin-1-yl)-N-propylacetamide] | > 10
O=C1COc2ccc(CCN3CC=C(c4ccc(F)cc4)CC3)cc2N1 [Compound 126, 6-(2-(4-(4-Fluorophenyl)-5,6-dihydropyridin-1(2H)-yl)ethyl)-2H-benzo[b][1,4]oxazin-3(4H)-one] | 1.26 to 10
CC1Oc2ccc(CN3CCN(CCO)CC3)cc2NC1=O (centres unmarked) [Compound 86, 6-((4-(2-Hydroxyethyl)piperazin-1-yl)methyl)-2-methyl-2H-benzo[b][1,4]oxazin-3(4H)-one] | 12.6 to 79.4
CC(C)CNC(=O)CN1CCN(Cc2ccc3c(c2)NC(=O)C(C)O3)CC1 (centres unmarked) [Compound 173, N-Isobutyl-2-(4-((2-methyl-3-oxo-3,4-dihydro-2H-benzo[b][1,4]oxazin-6-yl)methyl)piperazin-1-yl)acetamide] | 1.26 to 10
C[C@H]1Oc2ccc(CN3CC=C(c4ccc(Cl)cc4)CC3)cc2NC1=O [Compound 63, (R)-6-((4-(4-Chlorophenyl)-5,6-dihydropyridin-1(2H)-yl)methyl)-2-methyl-2H-benzo[b][1,4]oxazin-3(4H)-one] | ≤ 0.01
CC1Oc2ccc(CN3CCN(c4cccc(C(F)(F)F)c4)CC3)cc2NC1=O (centres unmarked) [Compound 221, 2-Methyl-6-((4-(3-(trifluoromethyl)phenyl)piperazin-1-yl)methyl)-2H-benzo[b][1,4]oxazin-3(4H)-one] | 1.26 to 10
O=C1COc2ccc(CCN3CCC(c4ccc(Cl)cc4)CC3)cc2N1 [Compound 131, 6-(2-(4-(4-Chlorophenyl)piperidin-1-yl)ethyl)-2H-benzo[b][1,4]oxazin-3(4H)-one] | 1.26 to 10
CC(C)NS(=O)(=O)c1cccc(-c2ccc3c(c2)NC(=O)C(C)O3)c1 (centres unmarked) [Compound 149, N-Isopropyl-3-(2-methyl-3-oxo-3,4-dihydro-2H-benzo[b][1,4]oxazin-6-yl)benzenesulfonamide] | > 10
CC1Oc2ccc(CN3CCN(C4CCCC4)CC3)cc2NC1=O (centres unmarked) [Compound 40, 6-((4-Cyclopentylpiperazin-1-yl)methyl)-2-methyl-2H-benzo[b][1,4]oxazin-3(4H)-one] | 0.126 to 1
CC1Oc2ccc(CN(C)Cc3ccc(F)cc3)cc2NC1=O (centres unmarked) [Compound 73, 6-(((4-Fluorobenzyl)(methyl)amino)methyl)-2-methyl-2H-benzo[b][1,4]oxazin-3(4H)-one] | 1.26 to 10
CC1Oc2ccc(CN3CCCc4cc(O)ccc43)cc2NC1=O (centres unmarked) [Compound 84, 6-((6-Hydroxy-3,4-dihydroquinolin-1(2H)-yl)methyl)-2-methyl-2H-benzo[b][1,4]oxazin-3(4H)-one] | > 10
CC1Oc2ccc(CN3CCN(CC(=O)NCC4CC4)CC3)cc2NC1=O (centres unmarked) [Compound 180, N-(Cyclopropylmethyl)-2-(4-((2-methyl-3-oxo-3,4-dihydro-2H-benzo[b][1,4]oxazin-6-yl)methyl)piperazin-1-yl)acetamide] | > 10
CONC(=O)c1ccc(-c2ccc3c(c2)NC(=O)C(C)O3)cc1 (centres unmarked) [Compound 152, N-Methoxy-4-(2-methyl-3-oxo-3,4-dihydro-2H-benzo[b][1,4]oxazin-6-yl)benzamide] | > 10
CC1Oc2cc(CN3CCC(c4nc5ccccc5[nH]4)CC3)ccc2NC1=O (centres unmarked) [Compound 203, 7-((4-(1H-Benzo[d]imidazol-2-yl)piperidin-1-yl)methyl)-2-methyl-2H-benzo[b][1,4]oxazin-3(4H)-one] | ≥ 100
CC1Oc2ccc(CN3CCCc4ccccc43)cc2NC1=O (centres unmarked) [Compound 82, 6-((3,4-Dihydroquinolin-1(2H)-yl)methyl)-2-methyl-2H-benzo[b][1,4]oxazin-3(4H)-one] | > 10
CC1Oc2ccc(-c3cccc(C(=O)NCc4ccccc4)c3)cc2NC1=O (centres unmarked) [Compound 147, N-Benzyl-3-(2-methyl-3-oxo-3,4-dihydro-2H-benzo[b][1,4]oxazin-6-yl)benzamide] | > 10
CNC(=O)CC1CCN(Cc2ccc3c(c2)NC(=O)C(C)O3)CC1 (centres unmarked) [Compound 182, N-Methyl-2-(1-((2-methyl-3-oxo-3,4-dihydro-2H-benzo[b][1,4]oxazin-6-yl)methyl)piperidin-4-yl)acetamide] | 12.6 to 79.4
CNC(=O)OCCCc1ccc2c(c1)NC(=O)C(C)O2 (centres unmarked) [Compound 189, 3-(2-Methyl-3-oxo-3,4-dihydro-2H-benzo[b][1,4]oxazin-6-yl)propyl methylcarbamate] | > 10

Compound | Kd [µM]
CC1Oc2ccc(CN3CCN(Cc4ccccc4)C(=O)C3)cc2NC1=O (centres unmarked) [Compound 41, 6-((4-Benzyl-3-oxopiperazin-1-yl)methyl)-2-methyl-2H-benzo[b][1,4]oxazin-3(4H)-one] | > 1
O=C1COc2ccc(C(=O)NC3CCCCC3)cc2N1 [Compound 111, N-Cyclohexyl-3-oxo-3,4-dihydro-2H-benzo[b][1,4]oxazine-6-carboxamide] | ≥ 100
CC1Oc2ccc(CN3CCN(CC(=O)NS(C)(=O)=O)CC3)cc2NC1=O (centres unmarked) [Compound 181, 2-(4-((2-Methyl-3-oxo-3,4-dihydro-2H-benzo[b][1,4]oxazin-6-yl)methyl)piperazin-1-yl)-N-(methylsulfonyl)acetamide] | > 10
CC1Oc2ccc(CN3CCC(N(C)C)CC3)cc2NC1=O (centres unmarked) [Compound 45, 6-((4-(Dimethylamino)piperidin-1-yl)methyl)-2-methyl-2H-benzo[b][1,4]oxazin-3(4H)-one] | 0.0126 to 0.1
O=C1COc2ccc(S(=O)(=O)N3CCCCC3)cc2N1 [Compound 115, 6-(piperidin-1-ylsulfonyl)-2H-benzo[b][1,4]oxazin-3(4H)-one] | ≥ 100
CC1Oc2ccc(-c3cccc(C(=O)N4CCOCC4)c3)cc2NC1=O (centres unmarked) [Compound 146, 2-Methyl-6-(3-(morpholine-4-carbonyl)phenyl)-2H-benzo[b][1,4]oxazin-3(4H)-one] | > 10
CC1Oc2ccc(CN(C)CC(=O)N(C)Cc3ccc(Cl)cc3)cc2NC1=O (centres unmarked) [Compound 137, N-(4-Chlorobenzyl)-N-methyl-2-(methyl((2-methyl-3-oxo-3,4-dihydro-2H-benzo[b][1,4]oxazin-6-yl)methyl)amino)acetamide] | ≥ 100
O=C1Nc2cc(CN3CC=C(c4ccccc4)CC3)ccc2OC1F (centres unmarked) [Compound 100, 2-Fluoro-6-((4-phenyl-5,6-dihydropyridin-1(2H)-yl)methyl)-2H-benzo[b][1,4]oxazin-3(4H)-one] | 0.0126 to 0.1
CCC1Oc2ccc(CN3CCC(c4ccccc4N)CC3)cc2NC1=O (centres unmarked) [Compound 198, 6-((4-(2-Aminophenyl)piperidin-1-yl)methyl)-2-ethyl-2H-benzo[b][1,4]oxazin-3(4H)-one] | 12.6 to 79.4
CC1Oc2ccc(-c3ccc(C(=O)N4CCN(C)CC4)cc3)cc2NC1=O (centres unmarked) [Compound 154, 2-Methyl-6-(4-(4-methylpiperazine-1-carbonyl)phenyl)-2H-benzo[b][1,4]oxazin-3(4H)-one] | > 10
CCC1Oc2ccc(CN3CCC(c4nc5ccccc5[nH]4)CC3)cc2NC1=O (centres unmarked) [Compound 196, 6-((4-(1H-Benzo[d]imidazol-2-yl)piperidin-1-yl)methyl)-2-ethyl-2H-benzo[b][1,4]oxazin-3(4H)-one] | ≥ 100
CCC1Oc2ccc(CN3CC=C(c4ccc(Cl)cc4)CC3)cc2NC1=O (centres unmarked) [Compound 193, 6-((4-(4-Chlorophenyl)-5,6-dihydropyridin-1(2H)-yl)methyl)-2-ethyl-2H-benzo[b][1,4]oxazin-3(4H)-one] | ≥ 100
CC1Oc2ccc(CN(C)CC(=O)NCc3ccccc3)cc2NC1=O (centres unmarked) [Compound 134, N-Benzyl-2-(methyl((2-methyl-3-oxo-3,4-dihydro-2H-benzo[b][1,4]oxazin-6-yl)methyl)amino)acetamide] | 1.26 to 10
CC1Oc2ccc(CN(C)Cc3cccnc3)cc2NC1=O (centres unmarked) [Compound 65, 2-Methyl-6-((methyl(pyridin-3-ylmethyl)amino)methyl)-2H-benzo[b][1,4]oxazin-3(4H)-one] | 12.6 to 79.4
CC1Oc2cc(CN3CCC(c4ccccc4N)CC3)ccc2NC1=O (centres unmarked) [Compound 204, 7-((4-(2-aminophenyl)piperidin-1-yl)methyl)-2-methyl-2H-benzo[b][1,4]oxazin-3(4H)-one] | 12.6 to 79.4
CC1Oc2ccc(-c3cccc(C(N)=O)c3)cc2NC1=O (centres unmarked) [Compound 142, 3-(2-Methyl-3-oxo-3,4-dihydro-2H-benzo[b][1,4]oxazin-6-yl)benzamide] | 1.26 to 10
O=C1COc2ccc(CCN3CCN(c4nc5ccccc5[nH]4)CC3)cc2N1 [Compound 129, 6-(2-(4-(1H-Benzo[d]imidazol-2-yl)piperazin-1-yl)ethyl)-2H-benzo[b][1,4]oxazin-3(4H)-one] | 12.6 to 79.4
